Test results reported in ChEMBL document CHEMBL3286257, “Development of second generation EP2 antagonists with high selectivity” (Eur J Med Chem, 2014).

Key:
[1] = target: Prostaglandin E2 receptor EP2 subtype (Homo sapiens) (UniProt P43116); test: Antagonist activity at EP2 receptor (unknown origin) expressed in rat C6 cells assessed as inhibition of PGE2-induced response; assay type: cell-based
[2] = Metabolic stability of the compound in human liver microsomes assessed as compound remaining at 10 uM after 30 mins; assay type: ADME; settings: read-out: Stability
[3] = Metabolic stability of the compound in mouse liver microsomes assessed as compound remaining at 10 uM after 15 mins; assay type: ADME; settings: read-out: Stability
[4] = Metabolic stability of the compound in human liver microsomes assessed as compound remaining at 10 uM after 60 mins; assay type: ADME; settings: read-out: Stability
[5] = Metabolic stability of the compound in mouse liver microsomes assessed as compound remaining at 10 uM after 30 mins; assay type: ADME; settings: read-out: Stability
[6] = Metabolic stability of the compound in mouse liver microsomes assessed as compound remaining at 10 uM after 60 mins; assay type: ADME; settings: read-out: Stability
[7] = Aqueous solubility of the compound by nephelometry method; assay type: physicochemical; settings: buffer
[8] = Metabolic stability of the compound in human liver microsomes assessed as compound remaining at 10 uM after 15 mins; assay type: ADME; settings: read-out: Stability
[9] = target: Prostacyclin receptor (Homo sapiens) (UniProt P43119); test: Antagonist activity at IP receptor (unknown origin) expressed in rat C6 cells by TR-FRET assay; assay type: cell-based
[10] = target: Prostaglandin E2 receptor EP4 subtype (Homo sapiens) (UniProt P35408); test: Antagonist activity at EP4 receptor (unknown origin) expressed in rat C6 cells assessed as inhibition of PGE2-induced response; assay type: cell-based
C6 = test: Cytotoxicity against rat C6 cells; assay type: cell-based; settings: c6
[11] = target: T1, Prostaglandin D2 receptor (Homo sapiens) (UniProt Q13258); test: Antagonist activity at DP1 receptor (unknown origin) expressed in rat C6 cells by TR-FRET assay; assay type: cell-based
T1 sequence (whole entry): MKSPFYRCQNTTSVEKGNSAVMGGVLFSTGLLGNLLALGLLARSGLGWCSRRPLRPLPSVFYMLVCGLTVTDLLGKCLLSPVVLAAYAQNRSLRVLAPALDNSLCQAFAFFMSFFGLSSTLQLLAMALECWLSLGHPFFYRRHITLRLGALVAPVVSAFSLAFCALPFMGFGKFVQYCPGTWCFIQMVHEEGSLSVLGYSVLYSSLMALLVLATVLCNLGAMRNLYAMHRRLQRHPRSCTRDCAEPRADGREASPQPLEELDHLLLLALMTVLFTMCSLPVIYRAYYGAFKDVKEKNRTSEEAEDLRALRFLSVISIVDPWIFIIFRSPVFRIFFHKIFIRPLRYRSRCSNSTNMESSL

Prostaglandin E2 receptor EP2 subtype (Homo sapiens), sequence (P43116 whole entry): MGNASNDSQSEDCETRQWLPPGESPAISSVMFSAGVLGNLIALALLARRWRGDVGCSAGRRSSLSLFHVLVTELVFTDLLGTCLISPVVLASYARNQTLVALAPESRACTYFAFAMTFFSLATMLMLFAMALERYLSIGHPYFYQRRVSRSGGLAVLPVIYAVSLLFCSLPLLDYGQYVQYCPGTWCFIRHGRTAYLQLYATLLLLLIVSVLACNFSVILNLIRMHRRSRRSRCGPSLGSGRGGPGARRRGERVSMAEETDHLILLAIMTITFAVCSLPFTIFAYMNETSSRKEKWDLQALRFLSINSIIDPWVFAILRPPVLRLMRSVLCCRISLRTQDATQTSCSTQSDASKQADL
Prostacyclin receptor (Homo sapiens), sequence (P43119 whole entry): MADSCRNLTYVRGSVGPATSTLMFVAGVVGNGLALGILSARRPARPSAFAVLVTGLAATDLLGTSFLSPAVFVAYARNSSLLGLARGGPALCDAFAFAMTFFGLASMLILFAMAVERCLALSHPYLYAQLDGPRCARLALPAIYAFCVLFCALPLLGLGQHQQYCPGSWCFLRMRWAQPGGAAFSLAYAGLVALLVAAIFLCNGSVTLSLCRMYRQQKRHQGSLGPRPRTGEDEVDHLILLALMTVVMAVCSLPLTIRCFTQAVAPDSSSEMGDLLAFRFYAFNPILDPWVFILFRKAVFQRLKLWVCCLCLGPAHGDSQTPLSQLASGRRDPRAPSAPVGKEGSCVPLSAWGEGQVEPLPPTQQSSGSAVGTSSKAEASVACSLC
Prostaglandin E2 receptor EP4 subtype (Homo sapiens), sequence (P35408 whole entry): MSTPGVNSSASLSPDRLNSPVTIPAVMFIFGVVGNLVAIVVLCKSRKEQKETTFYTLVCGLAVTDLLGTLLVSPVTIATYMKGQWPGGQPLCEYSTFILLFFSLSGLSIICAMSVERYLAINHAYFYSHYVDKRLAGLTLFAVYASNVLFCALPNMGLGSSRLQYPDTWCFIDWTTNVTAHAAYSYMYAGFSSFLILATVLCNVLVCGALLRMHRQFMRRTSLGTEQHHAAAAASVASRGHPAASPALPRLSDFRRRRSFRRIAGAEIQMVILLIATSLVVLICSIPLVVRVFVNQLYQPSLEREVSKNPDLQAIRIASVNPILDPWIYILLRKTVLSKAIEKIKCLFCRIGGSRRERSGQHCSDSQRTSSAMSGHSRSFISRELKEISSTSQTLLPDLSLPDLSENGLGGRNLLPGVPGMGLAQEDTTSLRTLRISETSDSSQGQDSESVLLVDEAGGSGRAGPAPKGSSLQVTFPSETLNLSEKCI

SMILES	Kb [1] [nM]	further results
Cc1[nH]c2ccccc2c1CCNC(=O)c1ccc(N2CCCCC2)cc1	19.8	
CCN(CC)c1ccc(C(=O)OCCn2c(C)cc3ccccc32)cc1	> 1000	
Cc1cc2ccccc2n1CCNC(=O)c1ccc(C#N)c(F)c1	140	
CC(=O)N1CCN(c2ccc(C(=O)NCCn3c(C)cc4ccccc43)cc2)CC1	50.2	
COc1ccc(C(=O)NCCn2c(C)cc3ccccc32)cc1	75.6	
Cc1cc2ccccc2n1CCNC(=O)c1cnc(Nc2ccccc2)nc1	1.6	remaining at 0.5 h, 10 µM [2]: 67%; remaining at […], 10 µM [3]: 71%; remaining at 1 h, 10 µM [4]: 50%; remaining at 0.5 h, 10 µM [5]: 59%; remaining at 1 h, 10 µM [6]: 35%; solubility kinetic [7]: < 25 µM; remaining at […], 10 µM [8]: 88%
Cc1cc2ccccc2n1CCNC(=O)c1ccc(S(N)(=O)=O)cc1	486	
Cc1cc2ccccc2n1CCNC(=O)c1ccc(C(N)=O)cc1	150	
Cc1cc2ccccc2n1CCNC(=O)c1ccc(N2CCN(C)CC2)cc1	64	
CC(=O)Nc1ccc(C(=O)NCCc2c(C)[nH]c3ccccc23)cc1	138	
Cc1cc2ccccc2n1CCNC(=O)c1ccc(N2CCC(C)CC2)cc1	30.3	
Cc1cc2ccccc2n1CCNC(=O)c1ccc(O)cc1	> 1000	
Cc1cc2cc(F)ccc2n1CCNC(=O)c1ccc(N2CCOCC2)cc1	14.9	
Cc1cc2ccccc2n1C1CCCN(C(=O)c2ccc(N3CCOCC3)cc2)C1 (centres undefined)	> 1000	
CCN(CC)c1ccc(C(=O)NCCn2c(C(F)(F)F)cc3ccccc32)cc1	150	
Cc1cc2ccccc2n1CCNC(=O)c1cccc(N2CCN(C)CC2)c1	770	
Cc1cc2ccccc2n1CCNC(=O)c1ccc(C(=O)OC(C)(C)C)cc1	100	
Cc1[nH]c2ccccc2c1CCNC(=O)c1ccc(N2CCN(C)CC2)cc1	135	
CCNc1ncc(C(=O)NCCC2C(C)=Nc3ccccc32)cn1 (centres undefined)	155	
Cc1cc2ccccc2n1CCNC(=O)c1ccc(N2CCCN(C)CC2)cc1	148	
CCN(CC)c1ccc(C(=O)NCCn2cnc3ccccc32)cc1	> 1000	
Cc1cc2ccccc2n1CCNC(=O)c1ccc(CN)cc1	690	

SMILES	Kb [1] [nM]	further results
Cc1cc2ccccc2n1CCNC(=O)c1ccc(C(=O)N(C)C)cc1	> 1000	
Cc1cc2ccccc2n1CCNC(=O)c1nc2cc(F)ccc2[nH]1	130	
Cc1cc2ccccc2n1CCNC(=O)c1ccc(NC(=N)N)cc1	> 1000	
CCN(CC)c1ccc(C(=O)NCCn2c(C)cc3ccccc32)cc1F	4.6	
Cc1cc2ccccc2n1CCNC(=O)c1ccc(N2CCNCC2)cc1	410	
CC(=O)Oc1ccc(C(=O)NCCn2c(C)cc3ccccc32)cc1	150	
CCNc1ncc(C(=O)NCCn2c(C)cc3ccccc32)cn1	57.8	
COc1ccc(C(=O)NCCn2c(C)cc3ccccc32)cc1F	86.8	
Cc1cc2ccccc2n1CCNC(=O)c1ccc2[nH]c(=S)[nH]c(=O)c2c1	84.1	
Cc1cc2ccccc2n1CCNC(=O)c1cnc2ccc(F)cc2c1O	175	
Cc1cc2ccccc2n1CCNC(=O)c1ccc(-n2cnnn2)cc1	42.2	remaining at 0.5 h, 10 µM [2]: 54%; remaining at […], 10 µM [3]: 50%; remaining at 1 h, 10 µM [4]: 26%; remaining at 0.5 h, 10 µM [5]: 26%; remaining at 1 h, 10 µM [6]: 7.5%; solubility kinetic [7]: < 25 µM; remaining at […], 10 µM [8]: 75%
Cc1cc2ccccc2n1CCNC(=O)c1ccc(CNC(=O)OC(C)(C)C)cc1	84	
Cc1[nH]c2ccccc2c1CCNC(=O)c1ccc(N2CCOCC2)c(F)c1	66	
Cc1cc2ccccc2n1CCNC(=O)c1cccnc1N	520	
CCNc1ccc(C(=O)NCCn2c(C)cc3ccccc32)cc1	15.5	
Cc1cc2ccccc2n1CCNC(=O)c1cccc(S(N)(=O)=O)c1	> 1000	
CCOC(=O)C1CCN(c2ccc(C(=O)NCCn3c(C)cc4ccccc43)cc2)CC1	500	
Cc1cc2cc(F)ccc2n1CCNC(=O)c1ccc(N2CCN(C)CC2)c(F)c1	62.2	
Cc1cc2ccccc2n1CCNC(=O)c1ccc(C2CCCCC2)cc1	120	
CC(=O)Nc1ccc(C(=O)NCCn2c(C)cc3ccccc32)cc1F	530	
CCNc1ccc(C(=O)NCCn2c(C)cc3ccccc32)cc1C(F)(F)F	20.2	

Second part, led by results:

Kb [1] [nM]	SMILES	further results
95	Cc1cc2ccccc2n1CCNC(=O)c1ccc(C2CCCN(C(=O)OC(C)(C)C)C2)cc1 (centres undefined)	
120	O=C(NCCn1c(C(F)(F)F)cc2ccccc21)c1ccc(N2CCOCC2)cc1	
61.2	CCN(CC)c1ccc(C(=O)NCCn2c(C)cc3ccccc32)cc1OC	
280	Cc1cc2ccccc2n1CCNC(=O)c1ccc(C#N)cc1F	
210	Cc1cc2ccccc2n1CCNC(=O)c1ccc(N)cc1	
1220	Cc1cc2ccccc2n1CCNC(=O)c1ccc(CCN)cc1	
> 1000	Cc1cc2ccccc2n1CCNC(=O)c1cccc(N2CCOCC2)c1	
> 1000	CCN(CC)C(=O)c1ccc(C(=O)NCCc2c(C)[nH]c3ccccc23)cc1	
> 1000	Cc1cc2ccccc2n1CCNC(=O)c1cnc(N)nc1	
> 1000	COc1cc(C(=O)NCCn2c(C)cc3ccccc32)cc(OC)c1OC	
9.8	Cc1cc2ccccc2n1CCNC(=O)c1ccc(N(C)C)cc1	remaining at 0.5 h, 10 µM [2]: 7%; remaining at […], 10 µM [3]: < 1%; remaining at 1 h, 10 µM [4]: < 1%; remaining at 0.5 h, 10 µM [5]: < 1%; Kb [9]: 4700 nM; Kb [10]: 51000 nM; remaining at 1 h, 10 µM [6]: < 1%; solubility kinetic [7]: < 25 µM; remaining at […], 10 µM [8]: 27%; CC50 (C6): 310000 nM; Kb [11]: 6430 nM
190	CCN(CC)c1ccc(C(=O)NCCn2c(C)nc3ccccc32)cc1	
22.3	COc1ccc(C(=O)NCCn2c(C)cc3ccccc32)cc1OC	
> 1000	O=C(NC1CCc2[nH]c3ccccc3c2C1)c1ccc(N2CCOCC2)cc1 (centres undefined)	
800	CCN(CC)C(=O)c1ccc(C(=O)NCCn2c(C)cc3ccccc32)cc1	
32.2	Cc1cc2ccccc2n1CCNC(=O)c1ccc(-n2nn[nH]c2=S)cc1	

Kb [1] [nM]	SMILES	further results
380	Cc1cc2ccccc2n1CCNC(=O)C1CCC(c2ncccn2)CC1 (centres undefined)	
97	CC(=O)Nc1ccc(C(=O)NCCn2c(C)cc3ccccc32)cc1	
76.5	Cc1cc2ccccc2n1CCNC(=O)c1cnc(N2CCOCC2)nc1	
280	CC1=Nc2ccccc2C1CCNC(=O)c1cnc(N2CCOCC2)nc1 (centres undefined)	
> 1000	CCN(CC)c1ccc(C(=O)NCCCn2c(C)cc3ccccc32)cc1	
> 1000	Cc1cc2ccccc2n1CCNC(=O)C1CCC(=O)N1 (centres undefined)	
970	Cc1cc2ccccc2n1CCNC(=O)c1ccc(CN2CCOCC2)cc1	
18.1	Cc1cc2ccccc2n1CCNC(=O)c1ccc(N(C)C)c(F)c1	
310	CCN(CC)c1ccc(C(=O)NCCn2c(C)cc3ccccc32)cc1C(F)(F)F	
51	Cc1cc2ccccc2n1CCNC(=O)c1ccc(NC(=O)c2ccccc2F)cc1	
> 1000	Cc1cc2ccccc2n1CCNC(=O)c1ccc(OC2CCNCC2)cc1	
> 1000	Cc1cc2ccccc2n1CCNC(=O)c1ccc(C2CCCNC2)cc1 (centres undefined)	
> 1000	Cc1cc2ccccc2n1CCNC(=O)c1ccc(CN2CCN(C)CC2)cc1	
140	Cc1cc2ccccc2n1CCNC(=O)c1ccc(C#N)cc1	
87.5	Cc1cc2ccccc2n1CCNC(=O)c1ccc2[nH]nnc2c1	
